From ChEMBL document CHEMBL3397028, “Synthesis and antimicrobial activity of novel benzoxazine sulfonamide derivatives” (2015)
Values after ≈ are worked out from the molar mass of the structure shown.

Key:
Assay type in all cases: functional
Pseudomonas aeruginosa = test: Antimicrobial activity against Pseudomonas aeruginosa MTCC 1034 after 18 hrs by broth micro dilution method; settings: MTCC 1034, 18 h
Xanthomonas campestris = test: Antimicrobial activity against Xanthomonas campestris after 18 hrs by broth micro dilution method
Candida albicans = test: Antimicrobial activity against Candida albicans MTCC 183 after 48 to 72 hrs by broth micro dilution method
Priestia megaterium = test: Antimicrobial activity against Bacillus megaterium MTCC 3382 after 18 hrs by broth micro dilution method; settings: MTCC 3382, 18 h
Escherichia coli = test: Antimicrobial activity against Escherichia coli MTCC 1089 after 18 hrs by broth micro dilution method; settings: MTCC 1089, 18 h

| Compound | MIC (Pseudomonas aeruginosa) [µg/mL] | MIC (Xanthomonas campestris) [µg/mL] | MIC (Candida albicans) [µg/mL] | MIC (Priestia megaterium) [µg/mL] | MIC (Escherichia coli) [µg/mL] |
| --- | --- | --- | --- | --- | --- |
| O=C1COc2ccc(S(=O)(=O)NCCCN3CCN(c4ccccc4)CC3)cc2N1 | 500 (≈ 1160 µM) | 500 (≈ 1160 µM) | 500 (≈ 1160 µM) | 250 (≈ 581 µM) | 500 (≈ 1160 µM) |
| O=C1COc2ccc(S(=O)(=O)NCCCN3CCN(c4ccc(C(F)(F)F)cc4)CC3)cc2N1 | 125 (≈ 251 µM) | 125 (≈ 251 µM) | 125 (≈ 251 µM) | 62.5 (≈ 125 µM) | 500 (≈ 1000 µM) |
| COc1ccccc1N1CCN(CCCNS(=O)(=O)c2ccc3c(c2)NC(=O)CO3)CC1 | 125 (≈ 271 µM) | 125 (≈ 271 µM) | 62.5 (≈ 136 µM) | 31.2 (≈ 67.9 µM) | 250 (≈ 543 µM) |
| O=C1COc2ccc(S(=O)(=O)NCCCN3CCN(c4ccccc4F)CC3)cc2N1 | 62.5 (≈ 139 µM) | 62.5 (≈ 139 µM) | 125 (≈ 279 µM) | 31.2 (≈ 69.7 µM) | 125 (≈ 279 µM) |
| O=C1COc2ccc(S(=O)(=O)NCCCN3CCN(c4ccc(F)cc4)CC3)cc2N1 | 62.5 (≈ 139 µM) | 125 (≈ 279 µM) | 250 (≈ 557 µM) | 250 (≈ 557 µM) | 500 (≈ 1110 µM) |
| Cc1cc2c(cc1S(=O)(=O)NCCCN1CCN(c3ccc(C(F)(F)F)cc3)CC1)NC(=O)CO2 | 250 (≈ 488 µM) | 62.5 (≈ 122 µM) | 125 (≈ 244 µM) | 62.5 (≈ 122 µM) | 250 (≈ 488 µM) |
| COc1ccccc1N1CCN(CCCNS(=O)(=O)c2cc3c(cc2C)OCC(=O)N3)CC1 | 500 (≈ 1050 µM) | 500 (≈ 1050 µM) | 250 (≈ 527 µM) | 250 (≈ 527 µM) | 500 (≈ 1050 µM) |
| Cc1cc2c(cc1S(=O)(=O)NCCCN1CCN(c3ccccc3F)CC1)NC(=O)CO2 | 250 (≈ 540 µM) | 250 (≈ 540 µM) | 250 (≈ 540 µM) | 250 (≈ 540 µM) | 250 (≈ 540 µM) |
| Cc1cc2c(cc1S(=O)(=O)NCCCN1CCN(c3ccccc3)CC1)NC(=O)CO2 | 250 (≈ 562 µM) | 250 (≈ 562 µM) | 250 (≈ 562 µM) | 250 (≈ 562 µM) | 250 (≈ 562 µM) |
| Cc1cc2c(cc1S(=O)(=O)NCCCN1CCSCC1)NC(=O)CO2 | 500 (≈ 1300 µM) | 250 (≈ 648 µM) | 250 (≈ 648 µM) | 125 (≈ 324 µM) | 500 (≈ 1300 µM) |
| Cc1cc2c(cc1S(=O)(=O)N1CCN(c3ccc(C(F)(F)F)cc3)CC1)N(CC(=O)c1ccc(-c3ccccc3)cc1)C(=O)CO2 | 125 (≈ 192 µM) | 125 (≈ 192 µM) | 125 (≈ 192 µM) | 125 (≈ 192 µM) | 250 (≈ 385 µM) |
| Cc1cc2c(cc1S(=O)(=O)N1CCN(c3ccc(C(F)(F)F)cc3)CC1)N(CC(=O)c1ccccc1)C(=O)CO2 | 250 (≈ 436 µM) | 250 (≈ 436 µM) | 250 (≈ 436 µM) | 250 (≈ 436 µM) | 250 (≈ 436 µM) |
| Cc1ccc(C(=O)CN2C(=O)COc3cc(C)c(S(=O)(=O)N4CCN(c5ccc(C(F)(F)F)cc5)CC4)cc32)cc1 | 31.2 (≈ 53.2 µM) | 125 (≈ 213 µM) | 250 (≈ 425 µM) | 125 (≈ 213 µM) | 62.5 (≈ 106 µM) |
| Cc1cc2c(cc1S(=O)(=O)N1CCN(c3ccc(C(F)(F)F)cc3)CC1)N(CC(=O)c1ccc([N+](=O)[O-])cc1)C(=O)CO2 | 31.2 (≈ 50.5 µM) | 125 (≈ 202 µM) | 31.2 (≈ 50.5 µM) | 31.2 (≈ 50.5 µM) | 62.5 (≈ 101 µM) |
| COc1ccc(C(=O)CN2C(=O)COc3cc(C)c(S(=O)(=O)N4CCN(c5ccc(C(F)(F)F)cc5)CC4)cc32)cc1 | 125 (≈ 207 µM) | 250 (≈ 414 µM) | 250 (≈ 414 µM) | 62.5 (≈ 104 µM) | 250 (≈ 414 µM) |
| Cc1cc2c(cc1S(=O)(=O)N1CCN(c3ccc(C(F)(F)F)cc3)CC1)N(CC(=O)c1ccc(Cl)cc1)C(=O)CO2 | 500 (≈ 822 µM) | 500 (≈ 822 µM) | 500 (≈ 822 µM) | 250 (≈ 411 µM) | 500 (≈ 822 µM) |
| Cc1cc2c(cc1S(=O)(=O)N1CCN(c3ccc(C(F)(F)F)cc3)CC1)N(CC(=O)c1cccs1)C(=O)CO2 | 31.2 (≈ 53.9 µM) | 125 (≈ 216 µM) | 31.2 (≈ 53.9 µM) | 31.2 (≈ 53.9 µM) | 125 (≈ 216 µM) |
| COc1ccccc1N1CCN(S(=O)(=O)c2cc3c(cc2C)OCC(=O)N3CC(=O)c2ccc(-c3ccccc3)cc2)CC1 | 250 (≈ 409 µM) | 125 (≈ 204 µM) | 500 (≈ 817 µM) | 62.5 (≈ 102 µM) | 500 (≈ 817 µM) |
| COc1ccccc1N1CCN(S(=O)(=O)c2cc3c(cc2C)OCC(=O)N3CC(=O)c2ccccc2)CC1 | 125 (≈ 233 µM) | 62.5 (≈ 117 µM) | 62.5 (≈ 117 µM) | 62.5 (≈ 117 µM) | 125 (≈ 233 µM) |
| COc1ccccc1N1CCN(S(=O)(=O)c2cc3c(cc2C)OCC(=O)N3CC(=O)c2ccc(C)cc2)CC1 | 62.5 (≈ 114 µM) | 125 (≈ 227 µM) | 62.5 (≈ 114 µM) | 125 (≈ 227 µM) | 62.5 (≈ 114 µM) |
| COc1ccccc1N1CCN(S(=O)(=O)c2cc3c(cc2C)OCC(=O)N3CC(=O)c2ccc([N+](=O)[O-])cc2)CC1 | 250 (≈ 431 µM) | 125 (≈ 215 µM) | 250 (≈ 431 µM) | 62.5 (≈ 108 µM) | 250 (≈ 431 µM) |
| COc1ccc(C(=O)CN2C(=O)COc3cc(C)c(S(=O)(=O)N4CCN(c5ccccc5OC)CC4)cc32)cc1 | 31.2 (≈ 55.2 µM) | 62.5 (≈ 110 µM) | 31.2 (≈ 55.2 µM) | 31.2 (≈ 55.2 µM) | 62.5 (≈ 110 µM) |
| COc1ccccc1N1CCN(S(=O)(=O)c2cc3c(cc2C)OCC(=O)N3CC(=O)c2ccc(Cl)cc2)CC1 | 250 (≈ 439 µM) | 125 (≈ 219 µM) | 250 (≈ 439 µM) | 250 (≈ 439 µM) | 250 (≈ 439 µM) |
| COc1ccccc1N1CCN(S(=O)(=O)c2cc3c(cc2C)OCC(=O)N3CC(=O)c2cccs2)CC1 | 250 (≈ 462 µM) | 250 (≈ 462 µM) | 250 (≈ 462 µM) | 500 (≈ 923 µM) | 250 (≈ 462 µM) |
| Cc1cc2c(cc1S(=O)(=O)N1CCN(c3ccc(C(F)(F)F)cc3)CC1)NC(=O)CO2 | 250 (≈ 549 µM) | 500 (≈ 1100 µM) | 500 (≈ 1100 µM) | 250 (≈ 549 µM) | 500 (≈ 1100 µM) |
| COc1ccccc1N1CCN(S(=O)(=O)c2cc3c(cc2C)OCC(=O)N3)CC1 | 500 (≈ 1200 µM) | 500 (≈ 1200 µM) | 500 (≈ 1200 µM) | 250 (≈ 599 µM) | 500 (≈ 1200 µM) |
| OC(Cn1cncn1)(Cn1cncn1)c1ccc(F)cc1F [FLUCONAZOLE] | – | – | 32 (≈ 104 µM) | – | – |
| CO[C@H]1/C=C/O[C@@]2(C)Oc3c(C)c(O)c4c(O)c(c(/C=N/N5CCN(C)CC5)c(O)c4c3C2=O)NC(=O)/C(C)=C\C=C\[C@H](C)[C@H](O)[C@@H](C)[C@@H](O)[C@@H](C)[C@H](OC(C)=O)[C@@H]1C [RIFAMPIN] | 32 (≈ 38.9 µM) | 32 (≈ 38.9 µM) | – | 64 (≈ 77.8 µM) | 64 (≈ 77.8 µM) |
